Data as given in patent publication US20240124412A1, “IKAROS ZINC FINGER FAMILY DEGRADERS AND USES THEREOF” (Gilead Sciences, Inc., priority 2021, published 2024).

How the values were obtained:
[1] = target: T1, IKZF2 (Homo sapiens, UniProt Q96SW2+Q9UKS7); assay: HiBiT protein tagging assay, in vitro IKZF2 degradation (HEK293); assay type: cell-based; conditions: HEK293, 18-24 hr incubation, normalized to DMSO control; for Dmax: HEK293, HiBiT assay, read-out: IKZF2 Dmax (maximum degradation at the highest concentration tested); for DC50: HiBiT assay, read-out: IKZF2 EC50
T1 construct: expressed in transfected cells
T1 sequence (Q9UKS7 1-500 isoform Q9UKS7-2): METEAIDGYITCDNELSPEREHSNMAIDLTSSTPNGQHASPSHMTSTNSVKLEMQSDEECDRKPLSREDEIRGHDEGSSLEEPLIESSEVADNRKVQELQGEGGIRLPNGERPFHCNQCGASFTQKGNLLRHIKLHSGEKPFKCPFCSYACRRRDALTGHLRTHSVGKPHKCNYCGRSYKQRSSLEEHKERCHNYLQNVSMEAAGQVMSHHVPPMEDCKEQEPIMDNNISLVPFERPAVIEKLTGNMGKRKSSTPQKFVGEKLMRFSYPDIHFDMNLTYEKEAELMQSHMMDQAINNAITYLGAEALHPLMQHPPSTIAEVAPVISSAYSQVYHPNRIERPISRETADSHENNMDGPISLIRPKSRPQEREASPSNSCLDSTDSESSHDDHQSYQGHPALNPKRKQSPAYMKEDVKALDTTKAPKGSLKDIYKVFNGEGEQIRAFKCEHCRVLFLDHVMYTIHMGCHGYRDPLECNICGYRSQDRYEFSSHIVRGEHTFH
T1 sequence (Q96SW2 whole entry): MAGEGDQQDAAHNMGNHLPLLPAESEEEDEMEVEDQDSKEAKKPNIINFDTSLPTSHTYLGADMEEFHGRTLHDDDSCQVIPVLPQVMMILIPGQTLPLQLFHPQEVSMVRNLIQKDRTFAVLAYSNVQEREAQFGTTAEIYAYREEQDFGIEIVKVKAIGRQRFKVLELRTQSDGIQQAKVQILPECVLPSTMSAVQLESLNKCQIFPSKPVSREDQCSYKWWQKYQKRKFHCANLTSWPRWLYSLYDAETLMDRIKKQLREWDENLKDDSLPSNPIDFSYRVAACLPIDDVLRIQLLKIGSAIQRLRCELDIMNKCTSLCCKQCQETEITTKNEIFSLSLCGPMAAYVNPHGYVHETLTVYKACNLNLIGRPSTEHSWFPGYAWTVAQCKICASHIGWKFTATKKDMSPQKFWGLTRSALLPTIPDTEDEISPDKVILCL
T1 sequence (Q16531 whole entry partner): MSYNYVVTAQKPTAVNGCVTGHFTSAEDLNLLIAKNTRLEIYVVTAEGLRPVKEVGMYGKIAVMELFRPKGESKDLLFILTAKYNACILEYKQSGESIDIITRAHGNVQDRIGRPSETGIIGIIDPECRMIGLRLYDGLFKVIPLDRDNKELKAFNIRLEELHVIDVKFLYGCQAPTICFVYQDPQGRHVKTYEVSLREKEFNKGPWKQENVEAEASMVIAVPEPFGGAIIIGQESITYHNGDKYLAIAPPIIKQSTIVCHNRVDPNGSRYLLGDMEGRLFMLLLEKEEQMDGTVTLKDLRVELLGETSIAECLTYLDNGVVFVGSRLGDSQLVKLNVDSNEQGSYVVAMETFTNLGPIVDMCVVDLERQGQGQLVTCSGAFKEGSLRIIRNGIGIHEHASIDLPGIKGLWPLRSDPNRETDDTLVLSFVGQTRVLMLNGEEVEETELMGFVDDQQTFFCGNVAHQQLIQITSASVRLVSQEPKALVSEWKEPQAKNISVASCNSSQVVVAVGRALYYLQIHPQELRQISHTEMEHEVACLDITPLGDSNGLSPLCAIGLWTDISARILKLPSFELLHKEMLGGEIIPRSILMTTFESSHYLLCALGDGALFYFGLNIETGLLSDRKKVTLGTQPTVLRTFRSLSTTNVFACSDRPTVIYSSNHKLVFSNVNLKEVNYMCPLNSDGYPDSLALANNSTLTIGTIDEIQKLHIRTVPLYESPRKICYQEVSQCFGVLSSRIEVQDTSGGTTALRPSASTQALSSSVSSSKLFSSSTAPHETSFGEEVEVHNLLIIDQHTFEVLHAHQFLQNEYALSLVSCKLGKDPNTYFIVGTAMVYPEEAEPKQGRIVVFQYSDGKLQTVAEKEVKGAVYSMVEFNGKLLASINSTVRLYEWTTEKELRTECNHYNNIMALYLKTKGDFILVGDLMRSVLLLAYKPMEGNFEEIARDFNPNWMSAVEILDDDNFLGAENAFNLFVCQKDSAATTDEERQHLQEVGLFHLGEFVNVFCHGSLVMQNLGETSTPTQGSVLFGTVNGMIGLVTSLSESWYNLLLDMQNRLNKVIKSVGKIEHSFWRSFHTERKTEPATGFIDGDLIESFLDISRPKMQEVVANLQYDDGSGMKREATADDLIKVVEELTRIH
Experimental: (§1) In vitro degradation of IKZF1 and IKZF2 was measured using HiBiT protein tagging and detection technology (Promega).
(§2) HiBiT technology (Promega) was used to develop the quantitative assays to measure the cellular IKZFs level by tagging an 11 amino acid HiBit peptides VSGWRLFKKIS (SEQ ID NO:1) to the protein of interest. Reporter plasmids were generated by fusing a linker sequence (GSSGGSSG; SEQ ID NO:2) followed by the HiBiT tag at the C terminus of IKZF1 and IKZF2. The fusion fragments were subsequently cloned into pcDNA5 pcDNA™5/FRT/TO plasmids (Thermo Fisher, cat #V652020) downstream of the Tetracycline operator. The resulting plasmids were co-transfected with pOG44 Flp-Recombinase Expression Vector (Thermo Fisher, cat #V600520) into Flp-In™ T-REx HEK293 line (Thermo Fisher, cat #R78077) and a stable cell pool was selected by adding 100 μg/ml of Hygromycin (Thermo Fisher, cat #10687010). The reporter cell enabled Tet-On inducible reporter expression from a single copy of the integrated gene.
(§3) On Day 1, Cells were grown to ˜80% confluency in TC medium (DMEM Glutamax (Gibco10569), 10% Tet free FBS (Takara 631106), and PenStrep Glutamin (Gibco 10378)) in tissue culture flasks. Doxycycline was then added to a final concentration of 1 μg/ml to induce reporter expression at 37° C. overnight.
(§4) On Day 2, 125 nL of serially-diluted solution of testing compounds were dispensed into 384-well white solid assay plates via ECHO acoustic liquid handler. Cells were lifted by 0.25% Trypsin (Gibco 25200) then pelleted by centrifugation (Beckman Avanti J-E) at 500×g for 5 min. Cell pellets were resuspended in TC medium at the concentration of 3e5/mL and 25 μL of cell suspension were added into each well of compound-spotted plates. The plates were returned to a 37° C. incubator overnight (18-24 hr).
(§5) On Day 3, assay plates were removed from the TC incubator and 25 μL of Nano-Glo lytic detection system (Promega, cat #N3030) was added to each well. Plates were incubated at r.t. for 3 min with shaking, and luminescence was read using an Envision reader (Perkin Elmer).
(§6) All raw data was normalized to DMSO control (final concentration: 0.5%) wells as POC and plotted out for EC50 and Dmax (Maximum degradation at the highest concentration tested in the assay).

[2] = target: T2, IKZF1 (Homo sapiens, UniProt Q13422+Q96SW2); assay: HiBiT protein tagging assay, in vitro IKZF1 degradation (HEK293); assay type: cell-based; conditions: HEK293, 18-24 hr incubation, normalized to DMSO control; for Dmax: read-out: IKZF1 Dmax (maximum degradation at the highest concentration tested); for DC50: read-out: IKZF1 EC50
T2 construct: expressed in transfected cells
T2 sequence (Q13422 whole entry): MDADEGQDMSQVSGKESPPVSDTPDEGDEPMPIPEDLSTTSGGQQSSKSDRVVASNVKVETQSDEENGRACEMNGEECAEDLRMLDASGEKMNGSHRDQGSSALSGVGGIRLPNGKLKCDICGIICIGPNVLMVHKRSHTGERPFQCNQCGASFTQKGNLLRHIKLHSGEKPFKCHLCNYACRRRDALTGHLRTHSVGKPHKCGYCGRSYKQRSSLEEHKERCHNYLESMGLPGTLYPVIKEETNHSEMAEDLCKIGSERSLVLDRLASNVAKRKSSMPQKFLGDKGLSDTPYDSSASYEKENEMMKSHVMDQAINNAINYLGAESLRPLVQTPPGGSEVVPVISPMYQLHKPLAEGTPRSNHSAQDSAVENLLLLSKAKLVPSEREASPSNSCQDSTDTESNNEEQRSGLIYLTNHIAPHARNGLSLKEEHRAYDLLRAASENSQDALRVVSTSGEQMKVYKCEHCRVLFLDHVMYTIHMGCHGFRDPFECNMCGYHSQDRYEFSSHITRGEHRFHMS
T2 sequence (Q96SW2 whole entry): as the sequence (Q96SW2 whole entry) above
T2 sequence (Q16531 whole entry partner): as the sequence (Q16531 whole entry partner) above
Experimental: as §1, §2, §3, §4, §5, §6

Row | Compound | Dmax [1] [%] | DC50 [1] [nM] | Dmax [2] [%] | DC50 [2] [nM]
1 | O=C1CCC(N2Cc3cc(CN[C@H]4CCC[C@@H](OCc5ccccc5)C4)ccc3C2=O)C(=O)N1 (stereo partly shown) [Example 111] | 56 | 206 | 61 | 85
2 | O=C1CCC(N2Cc3cc(CN[C@H]4C[C@@H](O)C4)ccc3C2=O)C(=O)N1 (stereo partly shown) [Example 54] | 33 | 2800 | 28 | 367
3 | C[C@@H]1[C@@H](NCc2ccc3c(c2)CN(C2CCC(=O)NC2=O)C3=O)C[C@H]2C[C@@H]1C2(C)C (stereo partly shown) [Example 134] | 89 | 111 | – | > 10000
4 | O=C1CCC(N2Cc3cc(CNC4CCN(c5ccccc5)CC4)ccc3C2=O)C(=O)N1 (stereo not shown) [Example 2, 3-(1-oxo-5-(((1-phenylpiperidin-4-yl)amino)methyl)isoindolin-2-yl)piperidine-2,6-dione] | 83 | 58 | 80 | 19
5 | CC1(C)CCCC(NCc2ccc3c(c2)CN(C2CCC(=O)NC2=O)C3=O)C1 (stereo not shown) [Example 131] | 92 | 62 | 69 | 91
6 | O=C1CCC(N2Cc3cc(CNC4CCN(Cc5ccccc5)CC4)ccc3C2=O)C(=O)N1 (stereo not shown) [Example 1, 3-(5-(((1-benzylpiperidin-4-yl)amino)methyl)-1-oxoisoindolin-2-yl)piperidine-2,6-dione] | 67 | 342 | 51 | 255
7 | COC(=O)C1(C)CCCC(NCc2ccc3c(c2)CN(C2CCC(=O)NC2=O)C3=O)C1 (stereo not shown) [Example 144] | 88 | 97 | 50 | 137
8 | O=C1CCC(N2Cc3cc(CNC4(CCc5ccccc5)CCCCC4)ccc3C2=O)C(=O)N1 (stereo not shown) [Example 152, 3-(1-oxo-5-(((1-phenethylcyclohexyl)amino)methyl)isoindolin-2-yl)piperidine-2,6-dione] | 65 | 172 | – | > 1000
9 | O=C1CCC(N2Cc3cc(CN[C@@H]4CCCN(Cc5ccccc5Cl)C4)ccc3C2=O)C(=O)N1 (stereo partly drawn) [Example 26, 3-(5-((((R)-1-(2-chlorobenzyl)piperidin-3-yl)amino)methyl)-1-oxoisoindolin-2-yl)piperidine-2,6-dione] | 97 | 7 | 97 | 1
10 | O=C1CCC(N2Cc3cc(CN[C@@H]4CCCN(Cc5ccccn5)C4)ccc3C2=O)C(=O)N1 (stereo partly drawn) [Example 130, 3-(1-oxo-5-((((R)-1-(pyridin-2-ylmethyl)piperidin-3-yl)amino)methyl)isoindolin-2-yl)piperidine-2,6-dione] | 97 | 138 | 97 | 48
11 | O=C1CCC(N2Cc3cc(CNC4CCC5(CC4)CC5)ccc3C2=O)C(=O)N1 (stereo not shown) [Example 58] | 81 | 67 | 66 | 50
12 | O=C1CCC(N2Cc3cc(CN[C@H]4CCCN(Cc5ccccc5)C4)ccc3C2=O)C(=O)N1 (stereo partly drawn) [Example 21, 3-(5-((((S)-1-benzylpiperidin-3-yl)amino)methyl)-1-oxoisoindolin-2-yl)piperidine-2,6-dione] | 72 | 261 | 79 | 56
13 | O=C1CCC(N2Cc3cc(CNC4CC5CCC4C5)ccc3C2=O)C(=O)N1 (stereo not drawn) [Example 42, 3-(5-((exo-bicyclo[2.2.1]heptan-2-ylamino)methyl)-1-oxoisoindolin-2-yl)piperidine-2,6-dione] | 65 | 193 | 30 | 85
14 | O=C1CCC(N2Cc3cc(CNC4(C5CC5)CCCCC4)ccc3C2=O)C(=O)N1 (stereo not shown) [Example 150, 3-(5-(((1-cyclopropylcyclohexyl)amino)methyl)-1-oxoisoindolin-2-yl)piperidine-2,6-dione] | 47 | 445 | – | > 10000
15 | O=C1CCC(N2Cc3cc(CN[C@H]4CC[C@](O)(c5ccccc5)CC4)ccc3C2=O)C(=O)N1 (stereo partly shown) [Example 65] | 90 | 67 | 86 | 29
16 | O=C1CCC(N2Cc3cc(CNCCCO)ccc3C2=O)C(=O)N1 (stereo not shown) [Example 55] | 20 | 1300 | 36 | 394
17 | O=C1CCC(N2Cc3cc(CN[C@H](CO)Cc4ccccc4)ccc3C2=O)C(=O)N1 (stereo partly shown) [Example 56] | 22 | 525 | 23 | 222
18 | O=C1CCC(N2Cc3cc(CN[C@H]4CCC[C@@H](O)C4)ccc3C2=O)C(=O)N1 (stereo partly shown) [Example 81] | 67 | 1300 | 45 | 762
19 | O=C1CCC(N2Cc3cc(CNC4CCC(Cc5ccccc5)CC4)ccc3C2=O)C(=O)N1 (stereo not shown) [Example 10, 3-(5-(((4-benzylcyclohexyl)amino)methyl)-1-oxoisoindolin-2-yl)piperidine-2,6-dione] | 80 | 117 | 51 | 121
20 | O=C1CCC(N2Cc3cc(CNC4CCN(Cc5ccccc5)C(=O)C4)ccc3C2=O)C(=O)N1 (stereo not shown) [Example 61] | 29 | 1400 | 27 | –
21 | CN(Cc1ccc2c(c1)CN(C1CCC(=O)NC1=O)C2=O)C1CCN(Cc2ccccc2)CC1 (stereo not shown) [Example 18, 3-(5-(((1-benzylpiperidin-4-yl)(methyl)amino)methyl)-1-oxoisoindolin-2-yl)piperidine-2,6-dione] | 21 | 328 | – | > 10000
22 | O=C1CCC(N2Cc3cc(CNC4CCOCC4)ccc3C2=O)C(=O)N1 (stereo not shown) [Example 6, 3-(1-oxo-5-(((tetrahydro-2H-pyran-4-yl)amino)methyl)isoindolin-2-yl)piperidine-2,6-dione] | 78 | 181 | 92 | 148
23 | O=C1CCC(N2Cc3cc(CN[C@@H]4CCC[C@H](Cc5ccccc5)C4)ccc3C2=O)C(=O)N1 (stereo partly shown) [Example 115] | 97 | 8 | 87 | 4
24 | O=C1CCC(N2Cc3cc(CN[C@H]4CCc5ccccc5C4)ccc3C2=O)C(=O)N1 (stereo partly drawn) [Example 13, 3-(1-oxo-5-((((S)-1,2,3,4-tetrahydronaphthalen-2-yl)amino)methyl)isoindolin-2-yl)piperidine-2,6-dione] | 73 | 23 | 48 | 31
25 | O=C1CCC(N2Cc3cc(CNC45CCC(CC4)C5)ccc3C2=O)C(=O)N1 (stereo not shown) [Example 141] | 93 | 37 | 32 | 121
26 | NC(=O)C1CCCC(NCc2ccc3c(c2)CN(C2CCC(=O)NC2=O)C3=O)C1 (stereo not drawn) [Example 96, (1,3-cis)-3-(((2-(2,6-dioxopiperidin-3-yl)-1-oxoisoindolin-5-yl)methyl)amino)cyclohexane-1-carboxamide] | 61 | 3800 | 66 | 3800
27 | CC1(C)C[C@]2(CC[C@H](NCc3ccc4c(c3)CN(C3CCC(=O)NC3=O)C4=O)CC2)CO1 (stereo partly shown) [Example 117] | 88 | 198 | 49 | 216
28 | CC1(c2ccccc2)CCC(NCc2ccc3c(c2)CN(C2CCC(=O)NC2=O)C3=O)CC1 (stereo not shown) [Example 103, 3-(5-(((4-methyl-4-phenylcyclohexyl)amino)methyl)-1-oxoisoindolin-2-yl)piperidine-2,6-dione] | 91 | 23 | 97 | 3
29 | O=C1CCC(N2Cc3cc(CNC4CCC4)ccc3C2=O)C(=O)N1 (stereo not shown) [Example 41] | 42 | 373 | 31 | 51
30 | N#CC1CCCC(NCc2ccc3c(c2)CN(C2CCC(=O)NC2=O)C3=O)C1 (stereo not drawn) [Example 93, (1,3-trans)-3-(((2-(2,6-dioxopiperidin-3-yl)-1-oxoisoindolin-5-yl)methyl)amino)cyclohexane-1-carbonitrile] | 59 | 26 | 29 | 252
